Data on six molecules can be found in ChEMBL document CHEMBL3399986, “Rapid 'one-pot' synthesis of a novel benzimidazole-5-carboxylate and its hydrazone derivatives as potential anti-inflammatory and antimicrobial agents” (Bioorg Med Chem Lett, 2015).

Common to all, as to type: functional
In assay [1] the test system is Penicillium chrysogenum. The assay is described as follows: Antifungal activity against Penicillium notatum assessed as zone of inhibition at 5 mg/ml after 24 hrs by agar well diffusion method. To be noted: read-out: IZ. On the technique in general: Agar diffusion results depend on both activity and mobility in agar.
In assay [2] the test system is Aspergillus niger. The assay is described as follows: Antifungal activity against Aspergillus niger MTCC 282 assessed as zone of inhibition at 5 mg/ml after 24 hrs by agar well diffusion method. To be noted: MTCC 282, 24 h, read-out: IZ.
Assay [3] has as its system Candida albicans. The assay is described as follows: Antifungal activity against Candida albicans MTCC 461 assessed as zone of inhibition at 5 mg/ml after 24 hrs by agar well diffusion method. To be noted: MTCC 461, 24 h, read-out: IZ.
Assay [4] relates to Escherichia coli. The assay is described as follows: Antimicrobial activity against Escherichia coli MTCC 4351 after 24 hrs by broth dilution method. The following applies: MTCC 4351, 24 h. For orientation: Dilution methods test growth across graded concentrations, often in twofold steps.
In assay [5] the test system is Penicillium chrysogenum. Kind of assay: Antifungal activity against Penicillium notatum after 48 hrs by broth dilution method.
For assay [6], the system named is Candida tropicalis. The assay is described as follows: Antifungal activity against Candida tropicalis MTCC 183 assessed as zone of inhibition at 5 mg/ml after 24 hrs by agar well diffusion method. The following applies: MTCC 183, 24 h, read-out: IZ.
For assay [7], the system named is Staphylococcus aureus. The assay is described as follows: Antimicrobial activity against Staphylococcus aureus MTCC 3160 assessed as zone of inhibition at 5 mg/ml after 24 hrs by agar well diffusion method. The following applies: MTCC 3160, 24 h, read-out: IZ.
For assay [8], the system named is Rattus norvegicus. Kind of assay: Antiinflammatory activity in rat assessed as inhibition of carrageenan-induced paw edema administered 30 mins prior to carrageenan challenge measured after 2 hrs relative to control. (In the carrageenan paw model, swelling and tenderness develop within hours.)
For assay [9], the system named is Bacillus subtilis. The assay is described as follows: Antimicrobial activity against Bacillus subtilis MTCC 441 after 24 hrs by broth dilution method. To be noted: MTCC 441, 24 h.
Assay [10] concerns Klebsiella pneumoniae. The assay is described as follows: Antimicrobial activity against Klebsiella pneumoniae MTCC 3384 after 24 hrs by broth dilution method. To be noted: MTCC 3384, 24 h.
In assay [11] the test system is Klebsiella pneumoniae. The assay is described as follows: Antimicrobial activity against Klebsiella pneumoniae MTCC 3384 assessed as zone of inhibition at 5 mg/ml after 24 hrs by agar well diffusion method. The following applies: MTCC 3384, 24 h, read-out: IZ.
Assay [12] relates to Candida tropicalis. Kind of assay: Antifungal activity against Candida tropicalis MTCC 183 after 48 hrs by broth dilution method. To be noted: MTCC 183, 48 h.
The test system of assay [13] is Escherichia coli. Kind of assay: Antimicrobial activity against Escherichia coli MTCC 4351 assessed as zone of inhibition at 5 mg/ml after 24 hrs by agar well diffusion method. To be noted: MTCC 4351, 24 h, read-out: IZ.
For assay [14], the system named is Staphylococcus aureus. Kind of assay: Antimicrobial activity against Staphylococcus aureus MTCC 3160 after 24 hrs by broth dilution method. The following applies: MTCC 3160, 24 h.
Assay [15] relates to Rattus norvegicus. The assay is described as follows: Antiinflammatory activity in rat assessed as inhibition of carrageenan-induced paw edema administered 30 mins prior to carrageenan challenge measured after 1 hr relative to control.
Assay [16] relates to Candida albicans. Kind of assay: Antifungal activity against Candida albicans MTCC 461 after 48 hrs by broth dilution method. To be noted: MTCC 461, 48 h.
In assay [17] the test system is Aspergillus niger. Kind of assay: Antifungal activity against Aspergillus niger MTCC 282 after 48 hrs by broth dilution method. To be noted: MTCC 282, 48 h.
Assay [18] has as its system Bacillus subtilis. The assay is described as follows: Antimicrobial activity against Bacillus subtilis MTCC 441 assessed as zone of inhibition at 5 mg/ml after 24 hrs by agar well diffusion method. The following applies: MTCC 441, 24 h, read-out: IZ.
Assay [19] relates to Rattus norvegicus. Kind of assay: Antiinflammatory activity in rat assessed as inhibition of carrageenan-induced paw edema administered 30 mins prior to carrageenan challenge measured after 3 hrs relative to control.

≈ marks a conversion by molar mass, not a printed value.

`CCCn1c(-c2ccc(Cl)cc2Cl)nc2cc(C(=O)N/N=C/c3ccccc3F)ccc21`: the zone of inhibition at 5000 µg/mL amounted to 16 mm in the assay with Penicillium chrysogenum [1]; 22 mm with Aspergillus niger [2]; 19 mm with Candida albicans [3]; 18 mm in the assay on Candida tropicalis [6]; 17 mm in the assay on Staphylococcus aureus [7]; 18 mm in the assay with Klebsiella pneumoniae [11]. Also, the zone of inhibition at 5000 µg/mL in the assay on Escherichia coli [13] turned out to be 20 mm; in the assay with Bacillus subtilis [18], 19 mm. Moreover, the MIC against Escherichia coli [4] came out at 6.25 µg/mL (≈ 13.3 µM); against Penicillium chrysogenum [5], 12.5 µg/mL (≈ 26.6 µM); in the assay on Bacillus subtilis [9], 6.25 µg/mL (≈ 13.3 µM); against Klebsiella pneumoniae [10] it was 12.5 µg/mL (≈ 26.6 µM); against Candida tropicalis [12], 6.25 µg/mL (≈ 13.3 µM); against Staphylococcus aureus [14], 12.5 µg/mL (≈ 26.6 µM). For the same molecule, the MIC with Candida albicans [16] amounted to 6.25 µg/mL (≈ 13.3 µM); in the assay with Aspergillus niger [17], 3.12 µg/mL (≈ 6.65 µM). Also, the “inhibition (INH)” value in the assay on Rattus norvegicus [8] is reported as 67.78%; with Rattus norvegicus [15], 60.55%; in the assay with Rattus norvegicus [19], 68.9%.

`CCCn1c(-c2ccc(Cl)cc2Cl)nc2cc(C(=O)N/N=C/c3ccc(Cl)cc3Cl)ccc21`: the zone of inhibition at 5000 µg/mL in the assay with Penicillium chrysogenum [1] is 12 mm; with Aspergillus niger [2], 18 mm; in the assay on Candida albicans [3], 15 mm; with Candida tropicalis [6], 16 mm; in the assay on Staphylococcus aureus [7], 15 mm; in the assay on Klebsiella pneumoniae [11] it was 15 mm. In addition, the results for the zone of inhibition at 5000 µg/mL in the assay on Escherichia coli [13] and in the assay with Bacillus subtilis [18] were 12 mm and 15 mm, respectively. Further, the MIC was 50 µg/mL (≈ 96.1 µM) with Escherichia coli [4]; 50 µg/mL (≈ 96.1 µM) against Penicillium chrysogenum [5]; 25 µg/mL (≈ 48.1 µM) against Bacillus subtilis [9]; 50 µg/mL (≈ 96.1 µM) in the assay with Klebsiella pneumoniae [10]; 12.5 µg/mL (≈ 24 µM) against Candida tropicalis [12]; 25 µg/mL (≈ 48.1 µM) against Staphylococcus aureus [14]. Moreover, the MIC in the assay with Candida albicans [16] and against Aspergillus niger [17] was 25 µg/mL (≈ 48.1 µM) each time. Moreover, the “inhibition (INH)” value was 63.63% in the assay with Rattus norvegicus [8], 51.29% in the assay on Rattus norvegicus [15] and 38.39% with Rattus norvegicus [19].

Consider `CCCn1c(-c2ccc(Cl)cc2Cl)nc2cc(C(=O)N/N=C/c3cccc(Cl)c3)ccc21`, for which the zone of inhibition at 5000 µg/mL with Penicillium chrysogenum [1] was 14 mm; with Aspergillus niger [2], 18 mm; with Candida albicans [3], 10 mm; in the assay on Candida tropicalis [6], 16 mm; in the assay with Staphylococcus aureus [7], 15 mm; with Klebsiella pneumoniae [11], 14 mm. For the same molecule, the zone of inhibition at 5000 µg/mL was determined as 21 mm in the assay on Escherichia coli [13] and 15 mm in the assay on Bacillus subtilis [18]. The MIC with Escherichia coli [4] is 6.25 µg/mL (≈ 12.9 µM); in the assay on Penicillium chrysogenum [5], 25 µg/mL (≈ 51.5 µM); against Bacillus subtilis [9] it was 25 µg/mL (≈ 51.5 µM); in the assay on Klebsiella pneumoniae [10], 50 µg/mL (≈ 103 µM); with Candida tropicalis [12] it was 25 µg/mL (≈ 51.5 µM); in the assay with Staphylococcus aureus [14], 25 µg/mL (≈ 51.5 µM). The MIC in the assay with Candida albicans [16] was 100 µg/mL (≈ 206 µM); against Aspergillus niger [17], 12.5 µg/mL (≈ 25.7 µM). Also, the “inhibition (INH)” value in the assay with Rattus norvegicus [8] was determined as 45.73%; in the assay on Rattus norvegicus [15] it was 49.25%; in the assay with Rattus norvegicus [19], 43.35%.

On to `OC(Cn1cncn1)(Cn1cncn1)c1ccc(F)cc1F` [FLUCONAZOLE], for which the zone of inhibition at 5000 µg/mL with Penicillium chrysogenum [1] came out at 22 mm; in the assay on Aspergillus niger [2] it was 24 mm; with Candida albicans [3], 23 mm; with Candida tropicalis [6], 24 mm. Moreover, the MIC against Penicillium chrysogenum [5] is 3.12 µg/mL (≈ 10.2 µM); in the assay with Candida tropicalis [12] it was 1.56 µg/mL (≈ 5.09 µM); against Candida albicans [16], 1.56 µg/mL (≈ 5.09 µM); with Aspergillus niger [17], 1.56 µg/mL (≈ 5.09 µM).

`CC1(C)S[C@@H]2[C@H](NC(=O)[C@H](N)c3ccccc3)C(=O)N2[C@H]1C(=O)O` [AMPICILLIN]: the MIC in the assay with Escherichia coli [4] is 1.56 µg/mL (≈ 4.46 µM); in the assay on Bacillus subtilis [9] it was 1.56 µg/mL (≈ 4.46 µM); in the assay with Klebsiella pneumoniae [10] it was 3.12 µg/mL (≈ 8.93 µM); against Staphylococcus aureus [14], 1.56 µg/mL (≈ 4.46 µM). For the same molecule, the zone of inhibition at 5000 µg/mL was 26 mm in the assay on Staphylococcus aureus [7], 23 mm with Klebsiella pneumoniae [11], 25 mm in the assay with Escherichia coli [13] and 24 mm in the assay on Bacillus subtilis [18].

As to `COc1ccc2c(c1)c(CC(=O)O)c(C)n2C(=O)c1ccc(Cl)cc1` [INDOMETHACIN], the results for the “inhibition (INH)” value in the assay on Rattus norvegicus [8], in the assay with Rattus norvegicus [15] and with Rattus norvegicus [19] were 68.11%, 55.55% and 69.34%, respectively.

By MIC is commonly meant the least concentration at which growth counts as inhibited. A low value points to a more susceptible organism.
